Patent publication US20140163075A1, “MODULATION OF THE UBIQUITIN-PROTEASOME SYSTEM (UPS)” (NETHERLAND CANCER INSTITUTE, priority 2011, published 2014)
“Also recorded” adds a separate entry of the source. Read-outs that look alike come from different tables or passages of the source. Residues, ends and D or L forms follow the SMILES beside them. *: point of attachment. Cbz = O=C(OCc1ccccc1)*

Assays:
proteasome = details: literature overview; cited from earlier work
[1] = tested on: 20S and/or 26S proteasome; assay: FACS-based proteasome activity assay with Me4BodipyFL-Ahx3Leu3VS activity probe in MelJuSo wild type cells; assay type: cell-based, human
Method: MelJuSo cells are washed, trypsinized and resuspended in medium containing FBS and antibiotics. After counting the concentration is adjusted to 200,000 cells per mL. Using the Wellmate microplate dispenser fitted with small bore nozzle tubing, 50 μL of cell suspension is transferred to each well of a black 384 wells plate (10,000 cells/well).
A brief spin down will prevent any liquid from being lost when the plate cover is removed. Using a Hamilton liquid handling workstation the compounds are diluted to appropriate concentrations. To “wash” the cells prior to exposure 30 μL of medium is removed from each well and is replaced with fresh medium. Then the compounds are added to the medium of the cells (final concentration 5 μM).
Using the Wellmate microplate dispenser fitted with small bore nozzle tubing, […] of probe suspension is transferred to each well resulting in a final probe concentration of 200 nM. Plates are left to incubate for two hours. Then the medium is removed and the cells are washed one time with PBS. The PBS is removed and 10 μL of trypsin is added to each well. The plates are left on a shaker for 2 minutes, placed in an incubator for 5 minutes and put on a shaker again for 2 minutes. 40 μL of PBS containing 2% FBS is added per well and the plates are put on the shaker for 2 minutes. Finally, 20 μL of PBS containing 4% formaldehyde is added and the plates are left to shake for at least 15 minutes. Plates are left on a shaker at 4° C. until they can be measured.
The FITS unit is installed on the FACS and everything is turned on. To remove air from the system and ascertain that everything works fine the system is primed twice. One by one the plates are brought down and measured. In between plates a “daily clean” cycle is performed to prevent the system from becoming clogged. After the last plate the system should be cleaned again.
Analysis is always performed per plate. Throughout the analysis the following parameters are considered: • Forward Scatter (FSC): size of the cell • Side Scatter (SSC): granularity of the cell • Number of events (#) • Probe signal (FL-1): proteasome activity • FL-2 and FL-3: signal in other channels
All DMSO samples are checked and aberrant wells (low # events, high SSC, no signal) are excluded. The average of the FL-1 from all remaining DMSO samples is used to calculate the “ratio vs. DMSO” and the FL-1 log 2 ratio of the experimental samples. This will result in DMSO samples having a FL-1 log 2 value around zero. Compounds are considered “activators” or “hits” if the FL-1 log 2 ratio is >1, and inhibitors if the FL-1 log 2 ratio is […].
(§1) Cells were washed once with phosphate buffered saline (PBS, 1 GIBCO tablet in 500 mL MilliQ). Fresh medium containing the compound at the indicated concentration was added. After the incubation time 200 nM of Me4BodipyFL-Ahx3Leu3VS activity probe was added to the cells and after two hours of incubation cells were harvested for subsequent analysis by FACS or post-lysis fluorescence detection.
Celts were washed once with PBS, trypsin was added and the plate was placed at 37° C. for 5 minutes to allow the cells to detach. When detached the cells were resuspended in PBS supplemented with 2% FBS. Cells were fixed with formaldehyde (final concentration 1% in PBS). All samples were measured using a FACSCalibur flow cytometer (BD Biosciences). […] The complete workflow used for the compound screens is described above in more detail.
The compound libraries mentioned above are screened using a FACS-based activity assay. The proteasome activity probe Me4BodipyFL-Ahx3Leu3VS activity probe is used to fluorescently label the proteasome. This probe binds irreversibly to the catalytic domains of the 20S CP. When proteasome activity is increased, increased probe binding results in an increase in fluorescent signal compared to untreated cells.

p38α = p38α (Homo sapiens, UniProt Q16539); details: literature [80, 83]; cited from earlier work
[2] = tested on: proteasome subunits (β2- and β5-subunits); assay: SDS-PAGE in-gel fluorescence of probe-labelled proteasome subunits in MelJuSo (MEL-JUSO) cells; assay type: cell-based, human; details: for activation effect on the β2- and β5-subunits: MEL-JUSO cells, p38 inhibitor panel tested at 1 and 5 μM, effect at 5 μM, FIG. 14B
Method: as §1
Cells were washed once with PBS, trypsin (6 well plate: 500 μL, 12 well plate: 200 μL, 24 well plate: 100 μL) was added and the plate was placed at 37° C. for 5 minutes to allow the cells to detach. When fully detached the cells were resuspended in fresh culture medium. Medium with cells was collected and after a centrifugation step (1100 ref for 2 minutes) the cells (pellet) were resuspended in cold HR buffer (50 mM Tris pH=7.4, 5 mM MgCl2, 250 mM sucrose, 1 mM DTT and 2 mM ATP). Lysis of the cells is achieved by sonification (Bioruptor, high intensity for 5 minutes with an ON/OFF cycle of 30 seconds) at 4° C. After a centrifugation step (13.600 rpm for 10 minutes) to remove cell debris the protein concentration (absorbance at 280 nm) of the supernatant is measured with a NanoDrop spectrophotometer. Fresh HR buffer without any cells was used as a blank,
Equal amounts of protein (15-20 μg) were denatured by heating the samples for 10 minutes at 71° C. in loading buffer (450 μL 4× loading buffer (Invitrogen), 45 μL β-Mercaptoethanol and 105 μl, MilliQ, 2 parts sample to 1 part loading buffer). The samples were loaded onto a 12% SDS-PAGE gel using the NuPAGE system from Invitrogen. MOPS (3-(N-morpholino)propanesulfonic acid) was used as a running buffer. Gels run at 180 V for approximately 1.5-2.0 hours and were directly imaged using the ProXPRESS 2D Proteomic imaging system (Perkin Elmer). Resolution was set at 100 μm, excitation at 480/30 and emission at 530/30. To verify protein loading, gels were stained with Coomassie Brilliant Blue. Images were analyzed using Totallab analysis software (Nonlinear Dynamics, Newcastle upon Tyne, UK) to quantify the intensity of the bands detected.
Additionally, FACS and SDS-PAGE validation experiments were done in which cells were incubated for 16 hours with 0.1, 0.5, 1.0 or 5.0 μM compound.
The proteasomal subunits are then labeled using the fluorescent […] probe, which selectively binds only to active β-subunits of the proteasome. The fluorogenic-labeled proteasome subunits were visualized directly in-gel by fluorescence scanning.
To further investigate this, MelJuSo wild type cells were incubated with 5 μM Win 62,577 for one hour. Then the medium was changed for regular medium without the compound present. After one or two hours of “washout” cells were stained with the proteasome activity probe and analyzed with SDS-PAGE followed by fluorescent scanning of the gel. The results of this experiment are depicted in FIG. 17.

MelJuSo wild type cells = assay: Cell viability (resazurin) assay, MG132 induced cell death; details: 1 μM, 24 hours
[3] = LOPAC and JHCCL library screen, 5 μM compound, 16 hours, 200 nM probe two hours

Sequence of p38α (Q16539 whole entry): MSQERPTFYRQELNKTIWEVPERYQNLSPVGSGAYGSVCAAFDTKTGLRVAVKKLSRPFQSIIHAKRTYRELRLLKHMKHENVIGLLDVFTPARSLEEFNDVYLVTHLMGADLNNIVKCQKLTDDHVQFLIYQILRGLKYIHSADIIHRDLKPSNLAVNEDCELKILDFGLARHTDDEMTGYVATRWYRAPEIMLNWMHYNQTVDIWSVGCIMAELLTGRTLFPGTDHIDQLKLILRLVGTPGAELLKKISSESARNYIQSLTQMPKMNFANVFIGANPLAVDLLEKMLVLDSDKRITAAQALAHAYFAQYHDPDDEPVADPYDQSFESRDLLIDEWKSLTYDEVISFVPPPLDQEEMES

Compound	Results: purified proteasome/lysate (proteasome)	screening hit (FL-1 log 2 ratio >1.00 and no exclusion criterion met) [1, 3]	also measured
Polyarginine	Increases mainly	–	–
Methylbenzethonium	–	identified as hits	–
CC/C=C\C/C=C\C/C=C\CCCCCCCC(=O)O [alpha linolenic acid]	Increases all 3 proteasome	–	–
Fc1ccc(-c2nc3n(c2-c2ccncc2)CCS3)cc1 [SKF86002]	–	–	inhibition of p38α isoform (p38α): inhibits only p38α
Cardiolipin	Increases mainly	–	–
CN1[C@@H]2CC[C@H]1C[C@@H](OC(c1ccccc1)c1ccccc1)C2 [benztropin]	–	initially identified in the JHCCL screen	–
Nc1ccc2cc3ccc(N)cc3nc2c1 [proflavine, Proflavine]	–	identified as hits	–
CN(C)CCC[C@@]1(c2ccc(F)cc2)OCc2cc(C#N)ccc21 [escitalopram]	–	initially identified in the JHCCL screen	–
CN1C[C@H](CNC(=O)OCc2ccccc2)C[C@@H]2c3cccc4c3c(cn4C)C[C@H]21 [metergoline, Metergoline]	–	identified as hits	–
O=c1[nH]c2ccccc2n1C1CCN(CCCC(c2ccc(F)cc2)c2ccc(F)cc2)CC1 [pimozide, Pimozide]	–	identified as hits	–
CC#C[C@]1(O)CC[C@H]2[C@@H]3CCC4=CC(=O)CCC4=C3[C@@H](c3ccc(N(C)C)cc3)C[C@@]21C [mifepristone, Mifepristone]	–	identified as hits	–
CCCCCCCCCCCCOS(=O)(=O)[O-].[Na+] [SDS]	Increases all 3 proteasome	–	–
Medroxyprogesterone	–	–	screening hit (FL-1 log 2 ratio >1.00 and no exclusion criterion met) [1]: initially identified in the JHCCL screen
Polylysine	Increases mainly	–	–
Ceramides	Increases mainly	–	–
COc1ccc(CCN(C)CCCC(C#N)(c2ccc(OC)c(OC)c2)C(C)C)cc1OC (centres unmarked) [verapamil, Verapamil]	–	–	screening hit (FL-1 log 2 ratio >1.00 and no exclusion criterion met) [1]: identified as hits in both
CCCCCCCC/C=C\CCCCCCCC(=O)O [Oleic acid]	Increases all 3 proteasome	–	–
CCCCC/C=C\C/C=C\CCCCCCCC(=O)O [Linoleic acid]	Increases all 3 proteasome	–	–
COc1cccc(-c2cc(=O)c3ccccc3o2)c1N [PD98059]	–	–	activation effect on the β2- and β5-subunits [2]: most pronounced; also recorded: pronounced activation effect; activation effect on the β2- and β5-subunits ([2]; listed as PD98052): seems to enhance the activity
CC(C)C[C@@H](C=O)NC(=O)[C@H](CC(C)C)NC(=O)[C@H](CC(C)C)NC(=O)OCc1ccccc1 [MG132] (Cbz-Leu-Leu-Leu-aldehyde)	–	–	fluorescent probe signal compared to untreated cells [1]: reduces the signal compared to untreated cells; cytotoxicity (MelJuSo wild type cells): highly cytotoxic
Oc1ccc(-c2nc(-c3ccc(F)cc3)c(-c3ccncc3)[nH]2)cc1 [SB202190]	–	–	activation effect on the β2- and β5-subunits [2]: pronounced activation effect; activation effect on the β2- and β5-subunits ([2]; listed as SB202150): most pronounced; inhibition of p38α isoform (p38α): inhibits both the p38α and p38β-isoforms
CCCn1c(=O)c2[nH]c(C3CCCC3)nc2n(CCC)c1=O [DPCPX, 8-cyclopenthyl-1,3-dipropylxanthine]	–	identified as hits	time dependence of proteasome activation (FL-1 log 2 ratio) ([1]; 0.1, 0.5, 1.0 or 5.0 μM compound for 4, 16, 24 or 48 hours): both concentration and time dependent; also recorded: displayed an increase in activation over time
OCCN(CCO)c1nc(N2CCCCC2)c2nc(N(CCO)CCO)nc(N3CCCCC3)c2n1 [dipyrimadole, Dipyrimadole]	–	identified as hits in both	–
CC(C)OC(=O)C(C)(C)Oc1ccc(C(=O)c2ccc(Cl)cc2)cc1 [fenofibrate, Fenofibrate]	–	identified as hits	–
C#C[C@]1(O)CC[C@H]2C3CCC4=Cc5nc6nc7ccccc7n6cc5C[C@]4(C)C3CC[C@@]21C (some centres unmarked) [Win 62,577]	–	–	concentration dependence of proteasome activation (FL-1 signal) [1]: dose-dependent increase of the fluorescent signal; screening hit (FL-1 log 2 ratio >1.00 and no exclusion criterion met) [1]: identified as hits; time dependence of proteasome activation (FL-1 log 2 ratio) [1]: mild decrease after 48 hours of incubation; probe signal after one hour of incubation, no washout [2]: strong activation; also recorded: clear increase in signal; probe signal after one hour of washout [2]: still more than the untreated control but less when compared to the no washout; probe signal after two hours of washout [2]: disappeared; timeframe of onset and termination of increasing proteasome activity [2]: 1 to 2 h
Lysophosphatidylinositol	Increases mainly	–	–
CN(C)C(=O)C(CCN1CCC(O)(c2ccc(Cl)cc2)CC1)(c1ccccc1)c1ccccc1 [loperamide, Loperamide]	–	–	screening hit (FL-1 log 2 ratio >1.00 and no exclusion criterion met) [1]: identified as hits
